Data on 1 compound can be found in US20240050358A1, “PERSONAL CARE COMPOSITION” (Conopco, Inc., d/b/a UNILEVER, priority 2020, published 2024).

Molecules are shown by their SMILES.

The test system of the assay is interleukin (IL)-6. Briefly: Human immune cell line THP-1 in vitro assay: IL-6 by ELISA after LPS co-treatment. The class given is cell-based. The note with it: PMA-differentiated THP1-XBlue cells co-treated with E. coli LPS and composition for 24 hours; supernatant ELISA; percentage to LPS-treated cells (=100%); three repeats. The protocol: Human Immune Cell Line THP-1 In Vitro Assay The following procedure was used to determine the anti-inflammation efficacy: THP1-XBlue™ (Cat No.: thpx-sp, InvivoGen, San Diego, CA) cells were cultured as suspense in RPMI 1640 medium supplemented with 10% fetal bovine serum (FBS), penicillin (10 U/mL)-streptomycin (10 μg/mL) (Gibco, Invitrogen, Carlsbad, CA). Cells were differentiated in 24-well plates at the density of 5×10^5 cells/well with 100 nM phorbol-12-myristate-13-acetate (PMA) for 72 hours. Cells were then co-treated with pure E. coli lipopolysaccharides (LPS) and various compositions in Table 1. […] Expression of IL-6 was calculated as the percentage to LPS-treated cells which was designated as 100%. P value was analysed by Student's t-test comparing combination groups and individual compound groups (expression of IL-6, three repeats for each group).

Consider `CCCCCCC(O)CCCCCCCCCCC(=O)O` (stereo not shown) [B, 12-hydroxystearic acid], for which the “Expression of IL-6 (%)” value is 91.9%.
